Assays:
[1] = system: HT22 cells (OGD/R); assay: Seahorse extracellular acidification rate (ECAR); assay type: cell-based, mouse; details: dose-dependent
Protocol: (§1) HT22 cells were counted and plated at 8000 cells per well in a Seahorse XF96 Cell Culture Microplate for all experiments (Agilent). They were then treated with VK (0.0735 or 0.735 μM) for 24 h. […] Next, HT22 cells were washed after 24 h of incubation and were incubated in a 0% CO2 chamber at 37 °C for 1 h, before being placed into a Seahorse XFe96 Analyzer (Agilent). In OCR experiment, HT22 cells were treated, with 2 μM of oligomycin, 5 μM of FCCP, and 1 μM of rotenone and antimycin, respectively; to assess ECAR, they were treated with 1 μM of rotenone and antimycin and 50 mM of 2-DG. All OCR and ECAR data were normalized to cell number per well using WAVE (Agilent).

[2] = system: brain of MCAO mice; assay: Fluorescence imaging of FITC-labeled VK in brain of stroke mice; assay type: in vivo, mouse
Protocol: A successful MCAO model was established and these mice were used for subsequent experiments. Immediately after surgery, FITC or FITC-labeled VK were administered intravenously and mice were killed after 30 min to isolate the brain and imaged by an imaging system (IVIS Lumina II). For fluorescent imaging, the brain was immediately collected and kept in the dark for 0, 30, 60, and 90 min after the administration of VK. Frozen sections were prepared according to the above method (seen Morphological Assessment). Images were acquired by confocal microscopy (FV1000 MPE-B, Olympus).

[3] = VK stability in PBS (HPLC); assay type: physicochemical; details: pH 7.4, 37 °C, 750 rpm, 120 min, VK 0.735 mM (Fig. 1 legend 73.5 nM), HPLC-UV 215 nm, peak area relative to 0 min, at least triplicate
Protocol: Proteolytic degradation of peptide-based drugs is generally considered as the main defect to limit systemic therapeutic applications. Therefore, high-performance liquid chromatography (HPLC) was used to assess the stability of VK in PBS or plasma at physiological pH (7.4) and temperature (37 °C). […] For neuropharmacology, crossing the BBB is a remarkable challenge, and VK was labeled with FITC in the N-terminus. FITC-labeled VK was then administered to stroke mice. After 30 min, these mice were imaged by an in vivo imaging system. […] Brains were collected at 0, 30, 60, 90, and 120 min and the distribution of VK was observed. […] To further evaluate whether VK was a cell-penetrating peptide, the oxygen-glucose deprivation/reoxygenation (OGD/R) model simulated I/R […] was established in HT22 hippocampal neuron cells and FITC-labeled VK was incubated for 120 min.
VK in PBS or plasma was detected by quantifying the peak areas relative to the initial peak areas (0 min). All stability tests were performed at least in triplicate.

[4] = system: MCAO/R mice; assay: Transmission electron microscopy of BBB; assay type: in vivo, mouse
Protocol: Frontal cortex samples were isolated from mice with stroke and fixed in 2% glutaraldehyde and 4% paraformaldehyde in 0.1 M sodium cacodylate (pH 7.4), treated with 10% gelatin solution in sodium cacodylate buffer, and incubated with 2% osmium tetroxide. Sections were cut using a Leica EM TP ultramicrotome (Leica Microsystems) at 40 nm and placed within grids stained with a 1:1 mix of 3% uranyl acetate and 50% acetone for 30–60 s. Grids were imaged with a JEM 1400 transmission electron microscope (JEOL) at ×1200 for low magnification and ×12,000 for high magnification (unless otherwise noted) using Gatan Microscopy Suite software (Gatan).

[5] = system: mice; assay: Histological analysis (H&E) of organs in acute toxicity test; assay type: in vivo, mouse
Protocol: Histological analysis. Organs such as heart, liver, kidney, and brain were excised and fixed in 10% formaldehyde for histological analysis. Their organs were collected and fixed with 4% PFA for 12-18 h, followed by dehydrating using an automatic dehydrator (Leica ASP-300S, Germany) and embedding in paraffin. Then, each sample was coronally cut (4 µm) using a rotatory microtome (Leica RM2245, Germany). The […]
Primary culture of neuron and microglia. Primary cortical neurons (1.0 × 10^5 cells per well in poly-L-lysine-coated 24-well plate) were obtained from fetal C57BL/6 mice of embryonic day 16–17.5, as previously reported1. After careful removal of meninges, cortical tissues were digested in dulbecco's modified eagle medium (DMEM, Gibco) containing 0.05% trypsin (Gibco) at 37 °C for 20 min. DMEM containing 10% FBS (Gibco) was then added to terminate the digestion. The mixture was homogenized by pipetting 120 times and was subsequently filtered with a 100-μm cell strainer (Biologix) and centrifuged at 1000 rpm for 5 min. Then, the cells were collected and resuspended by DMEM supplemented with 10% FBS (Gibco) and penicillin-streptomycin (Gibco).
The suspension was seeded into 24-well plates (10^5 cells/ml), and 4 h later, the medium was changed with Neurobasal medium (Gibco) containing 1% […] and 2% B27 supplement. […]

[6] = system: PI3K (p85α), AKT, IκBα, NF-κB, p38, ERK1/2 phosphorylation; assay: Quantitative immunoblotting of brain; assay type: in vivo, mouse; details: MCAO/R mice, Western blot
Protocol: Quantitative immunoblotting was accomplished as previously described. Anti-β-actin (Themo) was used as an internal loading control. Imaging of blots was performed using an AzureC300 with secondary antibodies(Themo). Analysis was carried out in Image Lab and signal intensities were normalized to loading controls, where applicable. The antibodies and their concentrations are listed as follows (antibody, dilution, catalog number, company, country): AKT (1:1000,4691, CST, USA), phospho-AKT (1:1000, 4046S, CST), phospho-p44/42 MAPK (Erk1/2) (Thr202/Tyr204) (1:1000, 4370S, CST), p44/42 MAPK (Erk1/2) (1:1000,4695S, CST), p38 MAPK (1:1000,8690S, CST), phospho-p38 MAPK (Thr180/Tyr182) (1:1000, 4511S, CST), NF-κB p65 (1:1000,8242S, CST), phospho-NF-κB p65 (Ser536) (1:1000,3033S, CST), IκBα (L35A5) Mouse mAb (1:1000, 4814S, CST), phospho-IκBα (Ser32) (1:1000,2859S, CST), PI3 kinase p85α (1:1000,11889S, CST), and phospho-PI3 kinase p85 (Tyr458)/p55 (Tyr199) (1:1000, 17366S, CST).

[7] = system: HT22 cells (OGD/R); assay: Seahorse O2 consumption rate (OCR); assay type: cell-based, mouse; details: dose-dependent
Protocol: as §1

**Q.** Which results are given for “Gly-Arg-Pro-Hyp-Gly-Phe-Ser-Pro-Phe-Arg-Ile-Asp [VK, Vespakinin-M]”?
**A.** glycolysis (extracellular acidification rate) in neurons [1]: decreased glycolysis; accumulation in brain, in vivo imaging ([2]; FITC-labeled VK i.v. to stroke mice, brain imaged after 30 min (IVIS Lumina II)): slightly accumulate in the ischemic region; penetration of BBB and cell membrane (conclusion) ([2]; under conditions such as cerebral I/R): can cross the BBB and cell membrane; degradation rate of VK in PBS [3]: 62.4%; BBB integrity, TEM [4]: could maintain BBB integrity; karyopyknosis and cellular swelling of hepatocytes in liver ([5]; VK 96 and 384 mg/kg single i.p.): moderate; histopathology of brain, liver and kidney vs control ([5]; all treated groups after 14 days, H&E): no changes at the cellular level; PI3K (p85α) and AKT phosphorylation [6]: stimulated MCAO-mediated PI3K (p85α) and AKT phosphorylation; phosphorylation levels of p38 and ERK1/2 vs vehicle [6]: partially downregulated; IκB and NF-κB phosphorylation levels ([6]; VK 300 µg/kg): reduced IκB and NF-κB levels; mitochondrial oxygen consumption rate in neurons [7]: accelerated the mitochondrial oxygen consumption rate
